Measurements: patent publication US20250195530A1, “POLQ INHIBITORS” (ASTRAZENECA AB, priority 2022, published 2025)
Where two headings read alike, the source gives them in different places.

What was measured:
DLD-1 cells = assay: Inhibition of proliferation, DLD-1 BRCA2 wt control (Cell Titre Glo 3D); assay type: cell-based; details: for IC50: Homo sapiens
Summary of the method: (§1)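 Isogenic DLD-1 pair; BRCA2−/− seeded 3,000 cells/mL and read day 12, wt seeded 1,500 cells/mL and read day 7. 10-pt titration (top 10 μM, 3-fold), re-fed with compound day 6, 37 °C/5% CO2. CTG 3D endpoint; IC50 at 50% signal loss.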

DLD-1 BRCA2−/− cells = assay: Homologous recombination synthetic lethal inhibition of proliferation, DLD-1 BRCA2-/- (Cell Titre Glo 3D); assay type: cell-based; details: for IC50: Homo sapiens
Summary of the method: as §1

[1] = DLD-1, DLD-1 BRCA2 wt control proliferation, column head only partly shown, read-out: POLQ PD Prolif Lumin (converted)
[2] = DLD-1, DLD-1 BRCA2-/- proliferation, column head only partly shown, read-out: POLQ PD Prolif Lumin (converted)
[3] = DLD-1, 168 h, DLD-1 BRCA2 wt cells, 7 days, read-out: POLQ PD Prolif Lumin DLD1 mean pIC50 (converted)
[4] = DLD-1, 288 h, DLD-1 BRCA2−/− cells, 12 days, read-out: POLQ PD Prolif Lumin BRCA2 −/− mean pIC50 (converted)
[5] = DLD-1, proliferation, luminescence, second Prolif column (c6), taken as DLD-1 BRCA2 wt control, read-out: POLQ PD Prolif Lumin (converted)
[6] = DLD-1, proliferation, luminescence, taken as DLD-1 BRCA2-/-, read-out: POLQ PD Prolif Lumin (converted)
[7] = DLD-1, second proliferation column (c6), DLD-1 BRCA2 wt control, read-out: POLQ PD Prolif Lumin (converted)
[8] = DLD-1, first proliferation column (c5), DLD-1 BRCA2-/-, read-out: POLQ PD Prolif Lumin (converted)

With `Cc1ccnc(Cn2c(-c3ccc(CC(=O)N(C)C)cc3Cl)nc3c(OC4(C)CC4)ncnc32)c1` [Example T210, 2-(3-chloro-4-(6-(1-methylcyclopropoxy)-9-((4-methylpyridin-2-yl)methyl)-9H-purin-8-yl)phenyl)-N,N-dimethylacetamide] the IC50 (DLD-1 cells; [1]) was over 10 µM and the IC50 (DLD-1 BRCA2−/− cells; [2]) was 316 nM.
`CNC(=O)c1ccc(-c2nc3c(OC4(C)CC4)ncnc3n2Cc2ccccc2)c(Cl)c1` [Example N2, 4-(9-benzyl-6-(1-methylcyclopropoxy)-9H-purin-8-yl)-3-chloro-N-methylbenzamide] showed an IC50 (DLD-1 cells; [3]) of over 10 µM and an IC50 (DLD-1 BRCA2−/− cells; [4]) of 251 nM.
With `CN(C)CCCOc1ccc(-c2nc3c(OC4(C)CC4)ncnc3n2Cc2cc(Cl)ccn2)c(F)c1` [Example T231, 3-(4-(9-((4-chloropyridin-2-yl)methyl)-6-(1-methylcyclopropoxy)-9H-purin-8-yl)-3-fluorophenoxy)-N,N-dimethylpropan-1-amine] the IC50 (DLD-1 cells; [1]) was over 10 µM and the IC50 (DLD-1 BRCA2−/− cells; [2]) was 251 nM.
`CC1(Oc2ncnc3c2nc(-c2ccc(O[C@H]4C[C@H](C(=O)O)C4)cc2Cl)n3Cc2cccc(Cl)c2)CC1` [Example T253, (1r,3r)-3-(3-chloro-4-(9-(3-chlorobenzyl)-6-(1-methylcyclopropoxy)-9H-purin-8-yl)phenoxy)cyclobutane-1-carboxylic acid] was tested, and the “POLQ PD Prolif Lumin” value (DLD-1 cells; DLD-1 BRCA2 wt control proliferation, column head only partly shown) was under 5.0 and the “POLQ PD Prolif Lumin” value (DLD-1 BRCA2−/− cells; DLD-1 BRCA2-/- proliferation, column head only partly shown) was 6.5.
With `Cc1ccnc(Cn2c(-c3ccc(OCCCN4CCCC4)cc3Cl)nc3c(OC4(C)CC4)ncnc32)c1` [Example T590, 8-(2-chloro-4-(3-(pyrrolidin-1-yl)propoxy)phenyl)-6-(1-methylcyclopropoxy)-9-((4-methylpyridin-2-yl)methyl)-9H-purine] the IC50 (DLD-1 cells; DLD-1, second proliferation column, DLD-1 BRCA2 wt control, read-out: POLQ PD Prolif Lumin (converted)) was over 10 µM and the IC50 (DLD-1 BRCA2−/− cells; DLD-1, first proliferation column, DLD-1 BRCA2-/-, read-out: POLQ PD Prolif Lumin (converted)) was 251 nM.
`CC(CCOc1ccc(-c2nc3c(OC4(C)CC4)ncnc3n2Cc2cccc(Br)c2)c(Cl)c1)C(=O)O` (racemic) [Example T279, 4-(4-(9-(3-bromobenzyl)-6-(1-methylcyclopropoxy)-9H-purin-8-yl)-3-chlorophenoxy)-2-methylbutanoic acid] showed an IC50 (DLD-1 cells; [1]) of over 10 µM and an IC50 (DLD-1 BRCA2−/− cells; [2]) of 200 nM.
In the case of `Cc1ccnc(Cn2c(-c3ccc(C(=O)N4CC5CC(C4)N5)cc3Cl)nc3c(OC4(C)CC4)ncnc32)c1` [Example T427, (3,6-diazabicyclo[3.1.1]heptan-3-yl)(3-chloro-4-(6-(1-methylcyclopropoxy)-9-((4-methylpyridin-2-yl)methyl)-9H-purin-8-yl)phenyl)methanone], the IC50 (DLD-1 cells; [5]) was over 10 µM and the IC50 (DLD-1 BRCA2−/− cells; [6]) was 7940 nM.
Compound `C[C@@H](Cn1c(-c2ccc(OCCN3CCNCC3)cc2Cl)nc2c(OC3(C)CC3)ncnc21)c1ccccc1` [Example J10, (R)-8-(2-chloro-4-(2-(piperazin-1-yl)ethoxy)phenyl)-6-(1-methylcyclopropoxy)-9-(2-phenylpropyl)-9H-purine] has an IC50 (DLD-1 cells; [3]) of 3.98 µM and an IC50 (DLD-1 BRCA2−/− cells; [4]) of 631 nM.
Work on `Cc1ccnc(Cn2c(-c3ccc(OCCN(C)C)cc3Cl)nc3c(OC4(C)CC4)ncnc32)c1` [Example 25, 2-(3-Chloro-4-(6-(1-methylcyclopropoxy)-9-((4-methylpyridin-2-yl)methyl)-9H-purin-8-yl)phenoxy)-N,N-dimethylethan-1-amine] yielded an IC50 (DLD-1 cells; [3]) of over 10 µM and an IC50 (DLD-1 BRCA2−/− cells; [4]) of 100 nM.
In the case of `CC1(Oc2ncnc3c2nc(-c2cccc(OCC(=O)O)c2Cl)n3Cc2cccc(Cl)c2)CC1` [Example T41, 2-(2-chloro-3-(9-(3-chlorobenzyl)-6-(1-methylcyclopropoxy)-9H-purin-8-yl)phenoxy)acetic acid], the IC50 (DLD-1 cells; DLD-1, DLD1 BRCA2 wt cells, mean, read-out: POLQ PD Prolif Lumin DLD1 mean PIC50 (converted)) was over 10 µM and the IC50 (DLD-1 BRCA2−/− cells; DLD-1, DLD-1 BRCA2 −/− cells, mean, read-out: POLQ PD Prolif Lumin BRCA2 −/− mean pIC50 (converted)) was over 7940 nM.
For `CC1(Oc2ncnc3c2nc(-c2ccc(OCCN4CCNCC4)cc2Cl)n3Cc2cc(C3CC3)ccn2)CC1` [Example S3, 8-(2-chloro-4-(2-(piperazin-1-yl)ethoxy)phenyl)-9-((4-cyclopropylpyridin-2-yl)methyl)-6-(1-methylcyclopropoxy)-9H-purine], the IC50 (DLD-1 cells; [3]) was over 10 µM and the IC50 (DLD-1 BRCA2−/− cells; [4]) was 794 nM.
With `Cc1cnc(Cn2c(-c3ccc(OC4CCNCC4)cc3Cl)nc3c(OC4(C)CC4)ncnc32)s1` [Example T138, 2-((8-(2-chloro-4-(piperidin-4-yloxy)phenyl)-6-(1-methylcyclopropoxy)-9H-purin-9-yl)methyl)-5-methylthiazole] the IC50 (DLD-1 cells; [7]) was over 10 µM and the IC50 (DLD-1 BRCA2−/− cells; [8]) was 501 nM.
For `Cc1ccnc(Cn2c(-c3ccc(OCCN4CC(O)C4)cc3Cl)nc3c(OC4(C)CC4)ncnc32)c1` [Example 26, 1-(2-(3-Chloro-4-(6-(1-methylcyclopropoxy)-9-((4-methylpyridin-2-yl)methyl)-9H-purin-8-yl)phenoxy)ethyl)azetidin-3-ol], the IC50 (DLD-1 cells; [3]) was over 10 µM and the IC50 (DLD-1 BRCA2−/− cells; [4]) was 501 nM.
For `CC1(Oc2ncnc3c2nc(-c2ccc(OCCN4CCN(S(=O)(=O)O)CC4)cc2Cl)n3Cc2cc(Cl)ccn2)CC1` [Example T380, 4-(2-(3-chloro-4-(9-((4-chloropyridin-2-yl)methyl)-6-(1-methylcyclopropoxy)-9H-purin-8-yl)phenoxy)ethyl)piperazine-1-sulfonic acid], the IC50 (DLD-1 cells; DLD-1, second proliferation column (c6), taken as DLD-1 BRCA2 wt, read-out: POLQ PD Prolif Lumin (converted)) was over 10 µM and the IC50 (DLD-1 BRCA2−/− cells; DLD-1, first proliferation column (c5), taken as DLD-1 BRCA2-/-, read-out: POLQ PD Prolif Lumin (converted)) was 7940 nM.
Compound `CC(CCOc1ccc(-c2nc3c(OC4(C)CC4)ncnc3n2Cc2ccccc2Br)c(Cl)c1)C(=O)O` (racemic) [Example T278, 4-(4-(9-(2-bromobenzyl)-6-(1-methylcyclopropoxy)-9H-purin-8-yl)-3-chlorophenoxy)-2-methylbutanoic acid] has an IC50 (DLD-1 cells; [1]) of over 10 µM and an IC50 (DLD-1 BRCA2−/− cells; [2]) of 316 nM.
In the case of `Cc1cc(OCCCN2CCCC2)ncc1-c1nc2c(OC3(C)CC3)ncnc2n1Cc1ccccc1` [Example G5, 9-benzyl-8-(4-methyl-6-(3-(pyrrolidin-1-yl)propoxy)pyridin-3-yl)-6-(1-methylcyclopropoxy)-9H-purine], the IC50 (DLD-1 cells; [3]) was 7.94 µM and the IC50 (DLD-1 BRCA2−/− cells; [4]) was 398 nM.
`CC1(Oc2ncnc3c2nc(-c2ccc(OCCCN4CCNC(=O)C4)cc2Cl)n3Cc2ccccc2)CC1` [Example S2, 4-(3-(4-(9-benzyl-6-(1-methylcyclopropoxy)-9H-purin-8-yl)-3-chlorophenoxy)propyl)piperazin-2-one] showed an IC50 (DLD-1 cells; [3]) of 2.51 µM and an IC50 (DLD-1 BRCA2−/− cells; [4]) of 50.1 nM.
`CC1(Oc2ncnc3c2nc(-c2cccc(OCCCC(=O)O)c2Cl)n3Cc2cccc(Cl)c2)CC1` [Example T157, 4-(2-chloro-3-(9-(3-chlorobenzyl)-6-(1-methylcyclopropoxy)-9H-purin-8-yl)phenoxy)butanoic acid] showed an IC50 (DLD-1 cells; [7]) of over 10 µM and an IC50 (DLD-1 BRCA2−/− cells; [8]) of 31.6 nM.
`COc1ccc(Cl)c(F)c1Cn1c(-c2ccc(OCCC(C)C(=O)O)cc2Cl)nc2c(OC3(C)CC3)ncnc21` (racemic) [Example U57, 4-(3-chloro-4-(9-(3-chloro-2-fluoro-6-methoxybenzyl)-6-(1-methylcyclopropoxy)-9H-purin-8-yl)phenoxy)-2-methylbutanoic acid] gave an IC50 (DLD-1 cells; DLD-1, DLD1 BRCA2 wt, mean, read-out: POLQ PD Prolif Lumin DLD1 mean pIC50 (converted)) of over 10 µM and an IC50 (DLD-1 BRCA2−/− cells; DLD-1, DLD-1 BRCA2 −/−, mean, read-out: POLQ PD Prolif Lumin BRCA2 −/− mean pIC50 (converted)) of 126 nM.
For `CC1(Oc2ncnc3c2nc(-c2ccc(OCCCCCCC(=O)O)cc2Cl)n3Cc2cccc(Cl)c2)CC1` [Example T561, 7-(3-chloro-4-(9-(3-chlorobenzyl)-6-(1-methylcyclopropoxy)-9H-purin-8-yl)phenoxy)heptanoic acid], the IC50 (DLD-1 cells; [7]) was over 10 µM and the IC50 (DLD-1 BRCA2−/− cells; [8]) was 39.8 nM.
For `C[C@H](CCOc1ccc(-c2nc3c(OC4(C)CC4)ncnc3n2Cc2ccccc2C#N)c(Cl)c1)C(=O)O` [Example T402, (R)-4-(3-chloro-4-(9-(2-cyanobenzyl)-6-(1-methylcyclopropoxy)-9H-purin-8-yl)phenoxy)-2-methylbutanoic acid], the IC50 (DLD-1 cells; [5]) was over 10 µM and the IC50 (DLD-1 BRCA2−/− cells; [6]) was 398 nM.
In the case of `CC1(Oc2ncnc3c2nc(-c2ccc(OCCN4CC[C@@H](O)C4)cc2Cl)n3Cc2cc(Cl)ccn2)CC1` [Example R2, (R)-1-(2-(3-chloro-4-(9-((4-chloropyridin-2-yl)methyl)-6-(1-methylcyclopropoxy)-9H-purin-8-yl)phenoxy)ethyl)pyrrolidin-3-ol], the IC50 (DLD-1 cells; [3]) was over 10 µM and the IC50 (DLD-1 BRCA2−/− cells; [4]) was 126 nM.
With `CC1(Oc2ncnc3c2nc(-c2ccc(OCCCCOCC(=O)O)cc2Cl)n3Cc2cccc(Cl)c2)CC1` [Example T445, 2-(4-(3-chloro-4-(9-(3-chlorobenzyl)-6-(1-methylcyclopropoxy)-9H-purin-8-yl)phenoxy)butoxy)acetic acid] the IC50 (DLD-1 cells; [5]) was over 10 µM and the IC50 (DLD-1 BRCA2−/− cells; [6]) was 251 nM.
`CC1(Oc2ccnc3c2nc(-c2ccc(OCCN4CCNCC4)cc2Cl)n3Cc2cc(Cl)ccn2)CC1` [Example 14, 2-(2-Chloro-4-(2-(piperazin-1-yl)ethoxy)phenyl)-3-((4-chloropyridin-2-yl)methyl)-7-(1-methylcyclopropoxy)-3H-imidazo[4,5-b]pyridine] gave an IC50 (DLD-1 cells; [3]) of over 10 µM and an IC50 (DLD-1 BRCA2−/− cells; [4]) of 251 nM.
